According to US20050107394A1, “Novel use of selective pde5 inhibitors” (priority 2001, published 2005):

Test system: rabbits
Experiment: Lung damage after inhaled bleomycin (characterisation of the model)
Type: in vivo, rabbit
Excerpt: Healthy rabbits of both sexes were pretreated orally with a gyrase inhibitor (Baytril®) for one week. Ten animals pretreated in this way were not treated with bleomyin and served as control, and, on the day of exposure, the others were anaesthetized with a Ketanest®/Rompun® mixture, intubated intratracheally and ventilated mechanically. An ultrasonic nebulizer (MMAD 2.5 μm) was used to administer by inhalation exactly 1.8 U/kg of bodyweight of bleomycin under volume-controlled ventilation. After 4, 8, 16, 24, 32 and 64 days (in each case n≧5) post exposure, the animals were again anaesthetized, provided with an arterial access (right carotid artery) and underwent bodyweight-adapted ventilation via a tracheostomy in a volume-controlled method. The arterial pO2 and pCO2, and the static compliance of the lung were measured (by recording the intrathoracic pressure and with slow inflation/deflation manoeuvres). Subsequently, the lungs of these animals were dissected and perfused with a Krebs Hensefeit buffer. Under these conditions, the capillary filtraton coefficient (cfc) was then found from the weight gain of the organ after increasing the pulmonary venous pressure by 7.5 mmHg, and the peak ventilation pressure was found. After completion of these measurements, the left main bronchus was ligated in the end-inspiratory position and a bronchoalveolar lavage (BAL) was performed on the right lung. Subsequently, the large vessels and airways of the right lung were dissected off and the organ was homogenized. The left lung was perfusion-fixed with 4% formalin solution while maintaining a pressure gradient of 25 cm H2O and was then stored in 4% formalin until embedded. Firstly, the cells were removed from the BAL, counted and differentiated via a Papenheim stain. The cell-free BAL supernatant was then aliquoted and submitted to further analysis of the surfactant and coagulation properties and a determination of the matrix metallo proteinases (MMPs) and their inhibitors (TIMPs) and of soluble collagen. Bronchoalveolar deposition of 1.8 U/kg of bodyweight of bleomycin led initially to development of an ARDS-like event, with a massive restriction of gas exchange (paO2/FiO2 of >500 mmHg in the controls reduced to ˜110 mmHg on day 4), ground-glass opacities over all sections of the lung in the HRCT and an increase of about 5-fold in the capillary filtration coefficient (cfc). In the later phase of bleomycin-induced lung damage there was then development of pronounced fibrosis which could be confirmed on the basis of the increase in soluble collagen in the BAL and the hydroxyproline in the tissue, on the basis of the histological specimens and of the HRCT findings. […] Consistent with this, a pronounced increase in the extracellular matrix and an alveolar and also interstitial ingress of fibroblasts was observable in the histological sections. Besides the homogeneously distributed zones of fibrosis there were also thin hyperdistended sections of lung with a honeycomb appearance.

bleomycin
concentration of soluble collagen in the BAL (after 64 days): 7000 ± 2200 ng/mL
paO2/FiO2 (day 4 after 1.8 U/kg bleomycin by inhalation, controls >500 mmHg): ~110 mmHg
concentration of soluble collagen in the BAL (maximum) (day 16 after bleomycin, controls 1.1±0.4): 38300 ± 12500 ng/mL
capillary filtration coefficient (cfc), increase (early phase after 1.8 U/kg bleomycin): about 5 fold
hydroxyproline content of the tissue (from day 16 onwards): approximately doubled
